Measurements reported in US20080070240A2, “COMPOSITION FOR DEAMINATING DNA AND METHOD OF DETECTING METHYLATED DNA” (Toyo Boseki Kabushiki Kaisha, priority 2004, published 2008).

Assay: Measurement of solubility of sulfites in distilled water
Conditions: for Concentration, Calculated value: calculated from mass and molecular weight; for Concentration, Measured value (sulfite concentration, solubility): method 0-A
Description: To a cuvette for measuring absorbance (1×1×4 cm, manufactured by Hitachi High-Technologies Co.), 3 ml of 0.1 N hydrochloric acid (manufactured by Wako Pure Chemical Co., Ltd.) was added. To the cuvette, 30 μl of a sulfite solution diluted with distilled water was added, the cuvette was covered with parafilm, and inverted 3 times to mix the solutions.
Then, the mass, volume and pH at that time were measured. In addition, with regard to each solution, the sulfite concentration was measured in accordance with the method 0-A described above.
With regard to the concentration in the table, the calculated value represents the sulfite concentration (M (mol/l)) calculated from the mass and the molecular weight of each dissolved sulfite. In addition, the measured value represents the sulfite concentration (M) measured in accordance with the method 0-A described above.

| Molecule | pH of saturated solution (30° C.) | solubility (30° C., distilled water, saturated) | pH of saturated solution (70° C.) | Concentration, Calculated value (30° C.) | Concentration, Measured value (sulfite concentration, solubility) (30° C.) | Concentration, Calculated value (70° C.) |
| --- | --- | --- | --- | --- | --- | --- |
| O=S([O-])[O-].[Na+].[Na+] [Sodium sulfite, sodium sulfite] | 10.3 | 200 mg/mL | 10.5 |  |  |  |
| O=S([O-])O.[Na+] [Sodium bisulfite, sodium bisulfite] | 4.4 |  | 4.5 | 5.2 M | 5.0 M | 6.5 M |
| ammonium sulfite monohydrate |  |  |  |  | 3.5 M |  |
